Structures are written as SMILES.

The series can be described thus: gradient 5% acetonitrile 3 min, to 50% in 2 min, to 85% in 15 min, held 3 min, 100 µL/min. Particulars: column: Zorbax Extend-C18 2.1 x 50 mm; eluents: water / acetonitrile, 0.1% formic acid. A digest of the protocol: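 Pure standards were run in mixtures of ~100 molecules by HPLC coupled to a quadrupole time-of-flight mass spectrometer. The column was a Zorbax Extend-C18 (2.1 × 50 mm, 1.8 μm) at 100 μL/min, with water and acetonitrile each containing 0.1% formic acid, in positive and negative ionization mode. Dead and dwell volumes were 40 μL and 900 μL. Retention time was taken from computationally picked adduct peaks, each manually inspected, with data collected over 3 months.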
`Cc1ccc(C)c(NC(=O)N2CCCC2c2nc(-c3ccc(F)cc3F)no2)c1` (stereo not drawn) came in with an RP-LC retention time of 1010 s.

`CCCCCn1c(=O)c2ccccc2n(Cc2nc(-c3cccc(OC)c3)no2)c1=O` gave an RP-LC retention time of 1130 s.

In the case of `CCC(=O)N1c2ccc(S(=O)(=O)CCC(=O)N3CCN(c4ccccc4F)CC3)cc2CC1C` (stereo not drawn), the RP-LC retention time worked out at 894 s.

The molecule `O=c1c2nc(-c3ccc(F)cc3)cn2ccn1-c1cccc(Cl)c1` registered an RP-LC retention time of 867 s.

Turning to `Cc1cccc(-c2nc3nc(C)cc(N4CCCC4)n3n2)c1`, the RP-LC retention time came out at 768 s.

`Cn1cc(-c2nc(C(=O)Nc3ccc(Cl)cc3)cs2)c2cccnc21` registered an RP-LC retention time of 1090 s.

`CCn1cc(CN2CCC(C(=O)NCc3ccc(C)cc3)CC2)c2cc(OC)ccc21` returned an RP-LC retention time of 720 s.

In turn, `CCN(CC)S(=O)(=O)c1cccc(-c2cn3ccc(C)cc3n2)c1` showed an RP-LC retention time of 656 s.

`Cc1ccccc1Cc1c(C)nc2nc(SCC(=O)NCCN3CCOCC3)nn2c1C` displayed an RP-LC retention time of 655 s.

Molecule `Cc1ccn2cc(-c3ccc(C)c(NS(=O)(=O)c4ccc(Cl)cc4)c3)nc2c1` gave an RP-LC retention time of 698 s.

`Cc1ccc(C2NC(=O)N(C)C3=C2C(=O)N(C(CC(C)C)C(=O)N2CCOCC2)C3)c(C)c1` (stereo not drawn) came in with an RP-LC retention time of 708 s.

For `Nc1nnc(C2CC(=O)N(c3ccccc3)C2)o1` (stereo not drawn), the RP-LC retention time is 570 s.

As to `COc1ccccc1N1CCN(CCNC(=O)Nc2ccc3c(c2)OCO3)CC1`, the RP-LC retention time turned out to be 569 s.

Molecule `Cc1sc(NC(=O)c2ccccc2Br)nc1-c1ccccc1` displayed an RP-LC retention time of 1090 s.

Turning to `Cc1cc(Cl)ccc1OCC(=O)N(Cc1ccc(N(C)C)cc1)C1CCS(=O)(=O)C1` (stereo not drawn), the RP-LC retention time was 849 s.

As to `COc1ccc(Nc2nc(-c3ccc(OC)cc3)c(CCC(=O)O)s2)cc1`, the RP-LC retention time stood at 756 s.

In turn, `CCN1CCCn2nc(C3CCN(C(=O)C4CCCC4)CC3)cc2C1=O` displayed an RP-LC retention time of 686 s.

As to `Cc1nc(-c2noc(-c3ccncc3)n2)cn1CC(=O)Nc1ccc(Cl)cc1`, the RP-LC retention time turned out to be 731 s.

In turn, `Cc1cc(N2CCC(NC(=O)Nc3ccc4c(c3)OCCO4)C2=O)ccc1F` (stereo not drawn) had an RP-LC retention time of 774 s.

Take `Cc1cc(Cl)ccc1NC(=O)NCC1CCOCC1`: the RP-LC retention time stood at 788 s.

For `CCOc1cc(=O)n2c(c1C(=O)Nc1ccc(Br)cc1F)CCCC2`, the RP-LC retention time turned out to be 790 s.

With `COc1ccc(NC(=O)Cn2ncc3c(c2=O)N(CC2CC2)C(=O)CS3)cc1Cl`, the RP-LC retention time was determined as 808 s.

Consider `CCOc1ccc(CCNC(=O)Cn2ncc3ccccc32)cc1OCC`, for which the RP-LC retention time is 845 s.

With `Cc1nc(C)c(C(=O)NCC2Cn3cccc3C(=O)N2C)s1` (stereo not drawn), the RP-LC retention time stood at 594 s.

In turn, `O=C(C1CCCN(c2ncc(-c3ccc(F)cc3)cn2)C1)N1CCCC1` (stereo not drawn) came in with an RP-LC retention time of 863 s.

As to `Cc1ccc(C(=O)Nc2nc(-c3ccc4c(c3)N(C)C(=O)CO4)c(C)s2)cc1`, the RP-LC retention time is 1030 s.

The molecule `CCCCN1CCN(Cc2nc(-c3ccc(N4CCSCC4)nc3)no2)CC1` yielded an RP-LC retention time of 653 s.

On to `Cc1nn(C)c(C)c1CCNC(=O)Nc1ccc(Br)cc1`, for which the RP-LC retention time stood at 674 s.

`Cc1ccc(CNc2c(-c3ccc(F)cc3)nc3ncccn23)cc1` had an RP-LC retention time of 789 s.

Consider `Cc1ccc(F)c(NC(=O)Cn2cc(-c3nnc(C)o3)ccc2=O)c1`, for which the RP-LC retention time worked out at 805 s.

`Cc1ccc(C)c(S(=O)(=O)N2CCC3(CC2)NCCN=C3NCc2ccccc2C)c1` registered an RP-LC retention time of 787 s.

As for `Cc1ccc2c(c1)N(C(=O)Cn1cnc3nc4c(cc3c1=O)CC(C)CC4)CCO2` (stereo not drawn), the RP-LC retention time turned out to be 888 s.

`CC(C)CCNC(=O)C1CCN(c2cncnc2N2CCCCC2)CC1`: the RP-LC retention time was 674 s.

For the origin of these results see the METLIN SMRT retention time set (Domingo-Almenara et al. 2019).
